Assay results reported in patent EP2457906A1, “Derivatives of 1,2,4-benzothiadiazine dioxide, their preparation and use as allosteric modulators of the AMPA receptor” (Universita'del Salento, priority 2010, dated 2012).

System: AMPA-kainate receptors
Experiment: Patch-clamp (whole-cell voltage-clamp) recording of kainate-evoked currents in primary cultures of cortical neurons
Assay type: cell-based
Conditions: rat cortical neurons; for type of allosteric modulation of the AMPA receptor: effect on current induced by Kainate; for Variation in the current induced by Kainate, %: compound at 10 µM, mean ± SE (n = 4-6)
Description: The pharmacological studies were conducted using the patch-clamp technique on primary cultures of cortical neurons.
The primary neuronal cultures were obtained from 1-day-old Sprague-Dawley rats. The cells were dispersed with trypsin (0.24 mg/ml) and plated out at a density of 10^6 cells/ml on 35mm Petri dishes pretreated with poly-L-lysine (10 µg/ml). The cells were cultivated in Eagle's Basal Medium with the addition of 10% foetal calf serum, 2 mM glutamine and 100 µg/ml gentamicin, and stored in an incubator at 37°C in 5% carbon dioxide.
To prevent astroglial proliferation, cytosine arabinofuranoside was added (1-10 µM) to the cultures 24h after plating out.
The patch-clamp recordings were performed on a single cell after 7 days in culture using the voltage-clamp technique in whole-cell configuration (Hamill OP, Marty A, Neher E, Sakmann B, Sigworth FJ (1981): Improved patchclamp techniques for high-resolution current recording from cell and cell-free membrane patches. Pflugers Arch, 85-100). […] The currents were amplified with an Axopatch 1 D amplifier (Axon Instruments, Foster City, CA), filtered at 5 kHz and digitised at 10 kHz using the pClamp software (Axon Instruments, Foster City, CA).
The intracellular solutions contained: KCI 140mM, MgCl2 3mM, EGTA 5mM, HEPES 5mM, ATP-Na 2mM, and were brought to pH 7.3 with KOH. The cells were continuously perfused with an external solution containing: NaCl 145mM, KCI 5mM, CaCl2 1mM, HEPES 5mM, glucose 5mM, saccharose 20Mm, and brought to pH 7.4 with NaOH.
The compounds tested were dissolved in DMSO and diluted to the final concentration in the extracellular solution. (The DMSO in the final concentration is less than 0.1%.) The kainate (SIGMA) was dissolved in the extracellular solution. All of the substances were applied directly by gravity through a "Y-tube" perfusion system (Murase K, Ryu PD, Randic M (1989). Excitatory and inhibitory amino acids and peptide-induced responses in acutely isolated rat spinal dorsal horn neurons. Neurosci Lett 103, 56-63).
The electrophysiological data was analysed using the software pCLAMP 6.3 (Axon Instruments).
The compounds according to the invention have proven to be potent allosteric modulators of the response mediated by AMPA-kainate receptors. […] The values are expressed as the mean ± SE (n = 4-6).

| EC50 (potentiation of currents induced by Kainate, calculated from dose/response data of Figure 1) [nM] | SMILES | type of allosteric modulation of the AMPA receptor (10 µM) | increase of the current induced by Kainate (10 µM, text statement on the data of Table 1) | EC2X (i.e. the concentration at which the AMPA receptor currents are potentiated 2 times) (calculated from dose/response data of Figure 1) [nM] | Variation in the current induced by Kainate, % [%] |
| --- | --- | --- | --- | --- | --- |
| 1100 | CC1Nc2c(-c3ccoc3)cc(Cl)cc2S(=O)(=O)N1 (stereo not drawn) [(1), 7-chloro-5-(3-furyl)-3-methyl-3,4-dihydro-2H-1,2,4-benzothiadiazine 1,1-dioxide] | positive allosteric modulator | around 360 times | 500 | 358±80 |
| – | CC1Nc2c(-c3ccsc3)cc(Cl)cc2S(=O)(=O)N1 (stereo not drawn) [(2), 7-chloro-3-methyl-5-thien-3-yl-3,4-dihydro-2H-1,2,4-benzothiadiazine 1,1-dioxide] | positive allosteric modulator | – | – | 214±41 |
| – | CC1Nc2c(-c3ccco3)cc(Cl)cc2S(=O)(=O)N1 (stereo not drawn) [(3), 7-chloro-5-(2-furyl)-3-methyl-3,4-dihydro-2H-1,2,4-benzothiadiazine 1,1-dioxide] | positive allosteric modulator | – | – | 80±16 |
| – | CCC1Nc2c(-c3ccco3)cc(Cl)cc2S(=O)(=O)N1 (stereo not drawn) [(4), 7-chloro-5-(2-furyl)-3-ethyl-3,4-dihydro-2H-1,2,4-benzothiadiazine 1,1-dioxide] | negative allosteric modulators | – | – | -32±12 |
| – | O=S1(=O)NCNc2c(-c3ccco3)cc(Cl)cc21 [(5), 7-chloro-5-(2-furyl)-3,4-dihydro-2H-1,2,4-benzothiadiazine 1,1-dioxide] | positive allosteric modulator | – | – | 20±5 |
| – | CC1=Nc2c(-c3ccco3)cc(Cl)cc2S(=O)(=O)N1 [(6), 7-chloro-5-(2-furyl)-3-methyl-1,2,4-benzothiadiazine 1,1-dioxide] | negative allosteric modulators | – | – | -21±9 |
